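The compound was tested at five concentrations on cells cultured in 96-well plates, with a 48-hour exposure period. The concentration for full growth arrest is given as TGI.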
Columns and labels:
Assay in all cases: inhibition of tumour cell growth, NCI panel, 48 h
[1] = test system: 786-0 renal
[2] = test system: A498 renal
[3] = test system: A549 NSCLC
[4] = test system: ACHN renal
[5] = test system: BT-549 breast
[6] = test system: CAKI-1 renal
[7] = test system: COLO 205 colon
[8] = test system: DU-145 prostate
[9] = test system: EKVX NSCLC
[10] = test system: HCC-2998 colon
[11] = test system: HCT-116 colon
[12] = test system: HCT-15 colon
[13] = test system: HL-60(TB) leukemia
[14] = test system: HOP-62 NSCLC
[15] = test system: HOP-92 NSCLC
[16] = test system: HT29 colon
[17] = test system: IGROV1 ovarian
[18] = test system: KM12 colon
[19] = test system: LOX IMVI melanoma
[20] = test system: M14 melanoma
[21] = test system: MCF7 breast
[22] = test system: MDA-MB-231 breast
[23] = test system: MDA-MB-435
[24] = test system: MDA-N
[25] = test system: MOLT-4 leukemia
[26] = test system: NCI-H226 lung
[27] = test system: NCI-H23 lung
[28] = test system: NCI-H460 lung
[29] = test system: NCI/ADR-RES ovarian
[30] = test system: OVCAR-3 ovarian
[31] = test system: OVCAR-4 ovarian
[32] = test system: OVCAR-5 ovarian
[33] = test system: OVCAR-8 ovarian
[34] = test system: RXF 393 renal
[35] = test system: SF-268 CNS
[36] = test system: SF-295 CNS
[37] = test system: SF-539 CNS
[38] = test system: SK-MEL-2 melanoma
[39] = test system: SK-MEL-28 melanoma
[40] = test system: SK-MEL-5 melanoma
[41] = test system: SK-OV-3 ovarian
[42] = test system: SN12C renal
[43] = test system: SNB-19 CNS
[44] = test system: SNB-75 CNS
[45] = test system: SW-620 colon
[46] = test system: T-47D breast
[47] = test system: TK-10 renal
[48] = test system: U251 CNS
[49] = test system: UACC-257 melanoma
[50] = test system: UACC-62 melanoma
[51] = test system: UO-31 renal
[52] = test system: CCRF-CEM leukemia
[53] = test system: K-562 leukemia
[54] = test system: MALME-3M melanoma
[55] = test system: NCI-H522 lung
[56] = test system: PC-3 prostate
[57] = test system: RPMI-8226 leukemia
[58] = test system: SR leukemia

Measured: TGI

CCCCN(CC)C(=O)C1=C(C)NC(C)=C(C(=O)N(CC)CCCC)C1
not listed: [52] | [53] | [54] | [55] | [56] | [57] | [58]
> 100 µM: all other assays above

[N-]=[N+]=CC(=O)OC1CCOCC1
not listed: [3] | [20] | [29] | [33] | [37] | [44] | [46]
> 100 µM: all other assays above

Reference: PubChem BioAssay (NCI)
